Measured values reported in ChEMBL document CHEMBL1154959, “The role of phosphate in the action of thymidine phosphorylase inhibitors: Implications for the catalytic mechanism” (Bioorg Med Chem Lett, 2010).
The source made the active and inactive calls. The calls are words filed in the database; no cut-off is given here.

Legend:
Thymidine phosphorylase = Thymidine phosphorylase (Escherichia coli K-12, UniProt P07650); experiment: Inhibition of Escherichia coli thymidine phosphorylase
[1] = target: Thymidine phosphorylase (Escherichia coli K-12) (UniProt P07650); experiment: Inhibition of Escherichia coli thymidine phosphorylase by spectrophotometry
Thymidine phosphorylase (Escherichia coli K-12), sequence (P07650 whole entry, looked up): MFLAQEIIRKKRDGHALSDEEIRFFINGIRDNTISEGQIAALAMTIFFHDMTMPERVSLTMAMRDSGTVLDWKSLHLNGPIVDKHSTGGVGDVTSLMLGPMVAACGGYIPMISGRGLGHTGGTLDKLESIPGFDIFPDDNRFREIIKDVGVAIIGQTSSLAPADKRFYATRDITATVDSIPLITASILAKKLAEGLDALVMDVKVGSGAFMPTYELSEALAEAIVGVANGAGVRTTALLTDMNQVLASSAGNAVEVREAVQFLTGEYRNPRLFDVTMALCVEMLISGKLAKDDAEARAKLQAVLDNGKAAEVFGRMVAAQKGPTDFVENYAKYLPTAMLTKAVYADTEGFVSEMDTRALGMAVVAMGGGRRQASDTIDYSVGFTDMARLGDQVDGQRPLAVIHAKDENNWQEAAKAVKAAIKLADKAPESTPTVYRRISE

Thymidine phosphorylase, sequence (P07650 whole entry): as the sequence (P07650 whole entry, looked up) above

Row | SMILES | Ki (Thymidine phosphorylase) [nM] | Activity [1]
1 | Nc1c(Br)c(=O)[nH]c(=O)n1CCCCCCCCP(=O)(O)O | 476000 | 
2 | N=C1CCCN1Cc1[nH]c(=O)[nH]c(=O)c1Cl | 35 | 
3 | Cc1cn([C@@H]2O[C@H](CO)[C@H]3C[C@@H](CP(=O)(O)O)O[C@H]32)c(=O)[nH]c1=O | 1000 | 

The remaining lines, values ahead:

Row | Ki (Thymidine phosphorylase) [nM] | Activity [1] | SMILES
4 | 51 |  | O=c1[nH]c(Cn2ccnc2)c(F)c(=O)[nH]1
5 | 11 | Active | Nc1nccn1Cc1[nH]c(=O)[nH]c(=O)c1F
